Measured values reported in ChEMBL document CHEMBL3792352, “3D-QSAR-aided design, synthesis, in vitro and in vivo evaluation of dipeptidyl boronic acid proteasome inhibitors and mechanism studies” (Bioorg Med Chem, 2016).

Tests used:
[1] = biological target: T1, Proteasome Macropain subunit MB1 (Homo sapiens, UniProt P28074); test: Inhibition of chymotrypsin like activity of human 20S proteasome using Suc-Leu-Leu-Val-Tyr-AMC as substrate preincubated for 10 mins followed by substrate addition measured after 1 hr by spectrofluorimetric analysis
T1 sequence (P28074 whole entry): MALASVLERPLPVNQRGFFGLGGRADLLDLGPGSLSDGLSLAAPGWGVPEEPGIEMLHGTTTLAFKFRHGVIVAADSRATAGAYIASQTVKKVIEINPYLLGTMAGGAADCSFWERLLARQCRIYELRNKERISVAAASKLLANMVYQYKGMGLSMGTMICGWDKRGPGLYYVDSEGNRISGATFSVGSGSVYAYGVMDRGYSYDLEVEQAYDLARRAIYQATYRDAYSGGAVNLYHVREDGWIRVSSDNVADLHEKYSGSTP

[2] = Cytotoxicity against human RPMI8226 cells assessed as cell viability after 72 hrs by CellTiter 96 aqueous one solution cell proliferation assay; assay type: functional, RPMI-8226
[3] = Cytotoxicity against human ARH77 cells assessed as cell viability after 72 hrs by CellTiter 96 aqueous one solution cell proliferation assay; assay type: functional, ARH-77
[4] = Cytotoxicity against human U266B1 cells assessed as cell viability after 72 hrs by CellTiter 96 aqueous one solution cell proliferation assay; assay type: functional, U-266
[5] = Elimination half life in Sprague-Dawley rat at 1 mg/kg, caudal iv by LC/MS/MS analysis; assay type: ADME, organism-based; conditions: in vivo, read-out: beta t1/2 (converted)
Rattus norvegicus [6] = test: Elimination half life in Sprague-Dawley rat at 0.2 mg/kg, ig through feeding tube by LC/MS/MS analysis; assay type: ADME, organism-based; conditions: in vivo, po
Rattus norvegicus [7] = test: Tmax in Sprague-Dawley rat at 0.2 mg/kg, ig through feeding tube by LC/MS/MS analysis; assay type: ADME, organism-based; conditions: in vivo, po
[8] = Cmax in Sprague-Dawley rat at 1 mg/kg, caudal iv by LC/MS/MS analysis; assay type: ADME, organism-based; parameters: dose 1 mg/kg, route intravenous; conditions: in vivo
Rattus norvegicus [9] = test: Cmax in Sprague-Dawley rat at 0.2 mg/kg, ig through feeding tube by LC/MS/MS analysis; assay type: ADME, organism-based; parameters: dose 0.2 mg/kg, route intragastric; conditions: in vivo, po
[10] = AUClast in Sprague-Dawley rat at 1 mg/kg, caudal iv by LC/MS/MS analysis; assay type: ADME, organism-based; parameters: dose 1 mg/kg, route intravenous, time 0 - last; conditions: in vivo
[11] = AUClast in Sprague-Dawley rat at 0.2 mg/kg, ig through feeding tube by LC/MS/MS analysis; assay type: ADME, organism-based; parameters: dose 0.2 mg/kg, route intragastric, time 0 - last; conditions: in vivo, po
[12] = AUC(0 to infinity) in Sprague-Dawley rat at 1 mg/kg, caudal iv by LC/MS/MS analysis; assay type: ADME, organism-based; parameters: dose 1 mg/kg, route intravenous, time infinity; conditions: in vivo
Rattus norvegicus [13] = test: AUC(0 to infinity) in Sprague-Dawley rat at 0.2 mg/kg, ig through feeding tube by LC/MS/MS analysis; assay type: ADME, organism-based; parameters: dose 0.2 mg/kg, route intragastric, time infinity; conditions: in vivo, po
[14] = MRTlast in Sprague-Dawley rat at 1 mg/kg, caudal iv by LC/MS/MS analysis; assay type: ADME, organism-based; conditions: in vivo
[15] = MRTlast in Sprague-Dawley rat at 0.2 mg/kg, ig through feeding tube by LC/MS/MS analysis; assay type: ADME, organism-based; conditions: in vivo, po
[16] = Cell cycle arrest in human U266 cells assessed as accumulation at S phase at 10 nM by propidium iodide/RNase staining based flow cytometric analysis (reference value: 29.47 %); assay type: functional; conditions: U-266
[17] = Cell cycle arrest in human U266 cells assessed as accumulation at G1 phase at 10 nM by propidium iodide/RNase staining based flow cytometric analysis (reference value: 58.21 %); assay type: functional; conditions: U-266
[18] = Cell cycle arrest in human U266 cells assessed as accumulation at G2/M phase at 10 nM by propidium iodide/RNase staining based flow cytometric analysis (reference value: 12.33 %); assay type: functional; conditions: U-266

IC50 ([1]; read-out: IC50) [nM] | SMILES | further results
6.7 | Cc1ccc(C[C@H](NC(=O)[C@H](Cc2ccccc2)NC(=O)[C@H]2CCCc3ccccc32)B2OC3C[C@@H]4C[C@@H](C4(C)C)[C@]3(C)O2)cc1 (stereo partly specified) | 
2.73 | CC(=O)N[C@@H](Cc1ccccc1)C(=O)N[C@@H](Cc1ccc(C)cc1)B1OC2C[C@@H]3C[C@@H](C3(C)C)[C@]2(C)O1 (stereo partly specified) | 
26.2 | Cc1cnc(C(=O)N[C@@H](Cc2ccccc2)C(=O)N[C@@H](CC(C)C)B(O)O)cn1 | 
4.85 | Cc1ccc(C[C@H](NC(=O)[C@H](Cc2ccccc2)NC(=O)c2cnccn2)B2OC3C[C@@H]4C[C@@H](C4(C)C)[C@]3(C)O2)cc1 (stereo partly specified) | 
0.76 | CC(C)C[C@H](NC(=O)[C@H](Cc1ccccc1)NC(=O)c1cccc2c1CCCC2)B1OC2C[C@@H]3C[C@@H](C3(C)C)[C@]2(C)O1 (stereo partly specified) | IC50 ([1]; read-out: pIC50 (converted)): 1.32 nM
5.24 | CC1(C)[C@@H]2CC3OB([C@H](Cc4ccccc4)NC(=O)[C@H](Cc4ccccc4)NC(=O)[C@H]4CCCc5ccccc54)O[C@@]3(C)[C@H]1C2 (stereo partly specified) | 
3.21 | CC1(C)[C@@H]2CC3OB([C@H](Cc4ccc(F)cc4)NC(=O)[C@H](Cc4ccccc4)NC(=O)c4cnccn4)O[C@@]3(C)[C@H]1C2 (stereo partly specified) | 
 | CC(C)C[C@H](NC(=O)[C@H](Cc1ccccc1)NC(=O)c1cnccn1)B(O)O [BORTEZOMIB] | Activity [2]: 11.2%; Activity [3]: 9.57%; Activity [4]: 11.63%
3.34 | Cc1ccc(C[C@H](NC(=O)[C@H](Cc2c[nH]c3ccccc23)NC(=O)OCc2ccccc2)B2OC3C[C@@H]4C[C@@H](C4(C)C)[C@]3(C)O2)cc1 (stereo partly specified) | 
5.17 | CC(C)C[C@H](NC(=O)[C@H](Cc1ccccc1)NC(=O)[C@@H]1CCCc2ccccc21)B1OC2C[C@@H]3C[C@@H](C3(C)C)[C@]2(C)O1 (stereo partly specified) | 
14.2 | CC(C)C[C@H](NC(=O)[C@H](CC(C)C)NC(=O)C1CCCc2ccccc21)B1OC2C[C@@H]3C[C@@H](C3(C)C)[C@]2(C)O1 (stereo partly specified) | 
1.12 | CC(C)C[C@H](NC(=O)[C@H](Cc1ccccc1)NC(=O)[C@H]1CCCc2ccccc21)B1OC2C[C@@H]3C[C@@H](C3(C)C)[C@]2(C)O1 (stereo partly specified) | 
17.2 | CCC(C)[C@H](NC(=O)C1CCCc2ccccc21)C(=O)N[C@@H](CC(C)C)B1OC2C[C@@H]3C[C@@H](C3(C)C)[C@]2(C)O1 (stereo partly specified) | 
1.92 | CCCC[C@H](NC(=O)[C@H](Cc1ccccc1)NC(=O)[C@H]1CCCc2ccccc21)B1OC2C[C@@H]3C[C@@H](C3(C)C)[C@]2(C)O1 (stereo partly specified) | 
7.63 | CC(C)C[C@H](NC(=O)[C@H](Cc1ccc2ccccc2c1)NC(=O)C1CCCc2ccccc21)B1OC2C[C@@H]3C[C@@H](C3(C)C)[C@]2(C)O1 (stereo partly specified) | 
39 | CC(C)C[C@H](NC(=O)[C@@H](NC(=O)C1CCCc2ccccc21)C(C)C)B1OC2C[C@@H]3C[C@@H](C3(C)C)[C@]2(C)O1 (stereo partly specified) | 
471 | Cc1ccc(C[C@H](NC(=O)[C@H](CC(C)C)NC(=O)OC(C)(C)C)B2OC3C[C@@H]4C[C@@H](C4(C)C)[C@]3(C)O2)cc1 (stereo partly specified) | 
25 | CC(C)C[C@H](NC(=O)[C@H](Cc1cc(C(F)(F)F)cc(C(F)(F)F)c1)NC(=O)c1cc(Cl)ccc1Cl)B(O)O | 
120 | CC(C)C[C@H](NC(=O)OC(C)(C)C)C(=O)N[C@@H](Cc1ccccc1)B1OC2C[C@@H]3C[C@@H](C3(C)C)[C@]2(C)O1 (stereo partly specified) | 
42.6 | CC(C)C[C@H](NC(=O)[C@H](Cc1ccc(C(F)(F)F)cc1)NC(=O)c1cnccn1)B(O)O | 
49.5 | CCCC[C@H](NC(=O)[C@H](CC(C)C)NC(=O)OC(C)(C)C)B1OC2C[C@@H]3C[C@@H](C3(C)C)[C@]2(C)O1 (stereo partly specified) | 
8.46 | CCCC[C@H](NC(=O)[C@H](Cc1ccccc1)NC(C)=O)B1OC2C[C@@H]3C[C@@H](C3(C)C)[C@]2(C)O1 (stereo partly specified) | 

IC50 ([1]; read-out: IC50) [nM] | SMILES | further results
1.16 | CC(C)C[C@H](NC(=O)[C@H](Cc1ccc2ccccc2c1)NC(=O)c1cccc2c1CCCC2)B1OC2C[C@@H]3C[C@@H](C3(C)C)[C@]2(C)O1 (stereo partly specified) | 
41.2 | CC(C)C[C@H](NC(=O)[C@H](Cc1c[nH]c2ccccc12)NC(=O)OCc1ccccc1)B1OC2C[C@@H]3C[C@@H](C3(C)C)[C@]2(C)O1 (stereo partly specified) | 
6.12 | CC(C)C[C@H](NC(=O)[C@H](Cc1ccc2ccccc2c1)NC(=O)[C@H]1CCCc2ccccc21)B1OC2C[C@@H]3C[C@@H](C3(C)C)[C@]2(C)O1 (stereo partly specified) | 
6.96 | CC(C)C[C@H](NC(=O)[C@@H](NC(=O)c1cccc2c1CCCC2)C(C)C)B1OC2C[C@@H]3C[C@@H](C3(C)C)[C@]2(C)O1 (stereo partly specified) | 
4.37 | O=C(N[C@@H](Cc1ccccc1)C(=O)N[C@@H](Cc1ccc(F)cc1)B(O)O)c1cnccn1 | 
16.4 | CC(C)C[C@H](NC(=O)[C@H](Cc1ccc(O)cc1)NC(=O)OC(C)(C)C)B1OC2C[C@@H]3C[C@@H](C3(C)C)[C@]2(C)O1 (stereo partly specified) | 
2.34 | CC(=O)N[C@@H](Cc1ccccc1)C(=O)N[C@@H](CC(C)C)B1OC2C[C@@H]3C[C@@H](C3(C)C)[C@]2(C)O1 (stereo partly specified) | 
1.34 | CC(C)C[C@H](NC(=O)[C@H](Cc1cccc2ccccc12)NC(=O)c1cccc2c1CCCC2)B1OC2C[C@@H]3C[C@@H](C3(C)C)[C@]2(C)O1 (stereo partly specified) | 
1.26 | CC1(C)[C@@H]2CC3OB([C@H](Cc4ccc(F)cc4)NC(=O)[C@H](Cc4ccccc4)NC(=O)[C@H]4CCCc5ccccc54)O[C@@]3(C)[C@H]1C2 (stereo partly specified) | 
3.37 | CC1(C)[C@@H]2CC3OB([C@H](Cc4ccccc4)NC(=O)[C@H](Cc4ccccc4)NC(=O)C4CCc5ccccc5C4)O[C@@]3(C)[C@H]1C2 (stereo partly specified) | 
8.32 | CC(C)C[C@H](NC(=O)[C@H](Cc1ccc(C(F)(F)F)cc1)NC(=O)c1cc(Cl)ccc1Cl)B(O)O | Activity [2]: 233.7%; Activity [3]: 98.15%; Activity [4]: 100.4%
2.46 | CC(C)C[C@H](NC(=O)[C@H](Cc1cccc2ccccc12)NC(=O)c1ccc2ccccc2c1)B1OC2C[C@@H]3C[C@@H](C3(C)C)[C@]2(C)O1 (stereo partly specified) | 
1.16 | Cc1ccc(C[C@H](NC(=O)[C@H](Cc2ccccc2)NC(=O)C2CCc3ccccc3C2)B2OC3C[C@@H]4C[C@@H](C4(C)C)[C@]3(C)O2)cc1 (stereo partly specified) | 
1.92 | CC(C)C[C@H](NC(=O)[C@H](Cc1ccccc1)NC(=O)c1cnccn1)B1OC2C[C@@H]3C[C@@H](C3(C)C)[C@]2(C)O1 (stereo partly specified) | 
1.15 | CC(C)C[C@H](NC(=O)[C@H](CC(C)C)NC(=O)c1cccc2c1CCCC2)B1OC2C[C@@H]3C[C@@H](C3(C)C)[C@]2(C)O1 (stereo partly specified) | 
4.26 | CC(C)C[C@H](NC(=O)[C@H](Cc1cccc2ccccc12)NC(=O)C1CCCc2ccccc21)B1OC2C[C@@H]3C[C@@H](C3(C)C)[C@]2(C)O1 (stereo partly specified) | 
4.6 | COc1ccc(C[C@H](NC(=O)c2cc(Cl)ccc2Cl)C(=O)N[C@@H](CC(C)C)B(O)O)c(OC)c1 | Activity [2]: 37.78%; Activity [3]: 14.58%; Activity [4]: 18.66%; half-life [5]: 7.24 h; beta t1/2 (Rattus norvegicus [6]): 0.2 h; Tmax (Rattus norvegicus [7]): 1.8 min; Cmax [8]: 7.83 ng/mL; Cmax (Rattus norvegicus [9]): 245 ng/mL; AUC(0-t) [10]: 47.9 ng·h/mL; AUC(0-t) [11]: 407 ng·h/mL; AUC(0-inf) [12]: 83 ng·h/mL; AUC (Rattus norvegicus [13]): 408 ng·h/mL; MRT last [14]: 8.44 h; MRT last [15]: 6.9 h; Activity [16]: 34.8%; Activity [17]: 43.7%; Activity [18]: 21.5%
3.67 | CC(C)C[C@H](NC(=O)[C@H](Cc1c[nH]c2ccccc12)NC(=O)C1CCCc2ccccc21)B1OC2C[C@@H]3C[C@@H](C3(C)C)[C@]2(C)O1 (stereo partly specified) | 
4.18 | CC(C)C[C@H](NC(=O)[C@H](Cc1ccccc1)NC(=O)C1CCCc2ccccc21)B1OC2C[C@@H]3C[C@@H](C3(C)C)[C@]2(C)O1 (stereo partly specified) | 
1.46 | CC(C)C[C@H](NC(=O)[C@H](Cc1ccccc1)NC(=O)C1CCc2ccccc2C1)B1OC2C[C@@H]3C[C@@H](C3(C)C)[C@]2(C)O1 (stereo partly specified) | 
114 | CC(C)(C)OC(=O)N[C@@H](Cc1ccc(O)cc1)C(=O)N[C@@H](Cc1ccccc1)B1OC2C[C@@H]3C[C@@H](C3(C)C)[C@]2(C)O1 (stereo partly specified) | 
